Source: US20230146455A1, “TREATMENT OF INFLAMMATORY DISEASES WITH PEPTIDES AND PHARMACEUTICAL COMPOSITIONS” (Yuyu Pharma, Inc., priority 2020, published 2023)
Several values for one entry are separate records, joined by “and”; a condition that tells them apart may be missing. Identical values can stand only once. Where a SMILES comes first, the peptide text is derived from it. [ ]: non-standard residue; d: D form. Hyp = O=C(O)[C@@H]1C[C@@H](O)CN1

What was measured:
IL-6 = assay: Example 9 Luminex, LPS hPBMCs: IL-6; type: cell-based, human; conditions: Bead IL-6, PBMC without LPS
Procedure: (§1) Treatment Human PBMCs were pretreated with YY-101, YDE-011 and YDE-043 or reference compound; Xiidra® at various concentration (ranging from 1 nM to 100 uM) for 2 h before stimulation. An equal volume of 0.5% DMSO was used as a vehicle control. Then, the cells were treated with LPS at 5 ug/ml. The supernatants from treated cells were harvested at 24 h and placed in a 96 well for Luminex cytokine & chemokine profiling using a Luminex 200 multiplex assay (Luminex; R&D system, USA).
(§2) The main study arm with triplicate wells per group in a 24-well plate: • 1. Blank • 2. PBMC: 0.5% DMSO • 3. PBMC+LPS (5 ug/ml) • 4. PBMC+YY-101 100 uM • 5. PBMC+YY-101 10 uM • 6. PBMC+YY-101 1 uM • 7. PBMC+YY-101 0.1 uM • 8. PBMC+YY-101 0.01 uM • 9. PBMC+LPS (5 ug/ml)+Xiidra®100 uM • 10. PBMC+LPS (5 ug/ml)+Xiidra® 10 uM • 11. PBMC+LPS (5 ug/ml)+Xiidra® 1 uM • 12. PBMC+LPS (5 ug/ml)+Xiidra®0.1 uM • 13. PBMC+LPS (5 ug/ml)+Xiidra®0.01 uM • 14. PBMC+LPS (5 ug/ml)+Xiidra®0.001 uM • 15. PBMC+LPS (5 ug/ml)+YY-101 100 uM • 16. PBMC+LPS (5 ug/ml)+YY-101 10 uM • 17. PBMC+LPS (5 ug/ml)+YY-101 1 uM • 18. PBMC+LPS (5 ug/ml)+YY-101 0.1 uM • 19. PBMC+LPS (5 ug/ml)+YY-101 0.01 uM • 20. PBMC+LPS (5 ug/ml)+YY-101 0.001 uM • 21. PBMC+LPS (5 ug/ml)+YDE-011 100 uM • 22. PBMC+LPS (5 ug/ml)+YDE-011 10 uM • 23. PBMC+LPS (5 ug/ml)+YDE-011 1 uM • 24. PBMC+LPS (5 ug/ml)+YDE-011 0.1 uM • 25. PBMC+LPS (5 ug/ml)+YDE-011 0.01 uM • 26. PBMC+LPS (5 ug/ml)+YDE-011 0.001 uM • 27. PBMC+LPS (5 ug/ml)+YDE-043 100 uM • 28. PBMC+LPS (5 ug/ml)+YDE-043 10 uM • 29. PBMC+LPS (5 ug/ml)+YDE-043 1 uM • 30. PBMC+LPS (5 ug/ml)+YDE-043 0.1 uM • 31. PBMC+LPS (5 ug/ml)+YDE-043 0.01 uM • 32. PBMC+LPS (5 ug/ml)+YDE-043 0.001 uM
(§3) Multiplex assay was used to measure 30 cytokines and chemokines. The 1:2, 1:10 and 1:200 diluted cell supernatant and serial dilution of the standard were dispensed into a 96 well plate at 50 ul/well. Then, the pre-mixed cocktail of antibody-coated magnetic beads was dispensed at 50 ul/well and incubated at room temperature for 2 h in a horizontal orbital microplate shaker at 800±500 rpm. The beads were washed using a magnetic device to prevent loss. The biotin-antibody was dispensed in 50 ul of each well and incubated at room temperature for 1 h in a shaker at 800±500 rpm. After washing, streptavidin-PE was added at 50 ul/well and incubated at room temperature for 30 min in a shaker under the same conditions. Finally, after washing, wash buffer (100 ul/well) was added to the plate and incubated in a shaker for 2 min. The Luminex™ 200 setting were set according to the manufacturer's protocol. The data was calculated with a standard five-parameter logistic nonlinear regression analysis of the data (xPonent software 4.2, USA). The levels of cytokine/chemokine are normalized to the live cell counts (1×10^5 cells/mL) and presented as concentrations per mL (pg/mL or ng/mL).

GM-CSF = assay: Example 9 Luminex, LPS hPBMCs: GM-CSF; type: cell-based, human
Procedure: as §1, §2, §3

[1] = PBMC + LPS(5 ug/ml) + test article 0.001 uM, Mean
[2] = PBMC + LPS(5 ug/ml) + test article 0.001 uM, single replicates
[3] = PBMC + LPS(5 ug/ml) + test article 0.01 uM, Mean
[4] = PBMC + LPS(5 ug/ml) + test article 0.01 uM, single replicates
[5] = PBMC + LPS(5 ug/ml) + test article 0.1 uM, Mean
[6] = PBMC + LPS(5 ug/ml) + test article 0.1 uM, single replicates
[7] = PBMC + LPS(5 ug/ml) + test article 1 uM, Mean
[8] = PBMC + LPS(5 ug/ml) + test article 1 uM, single replicates
[9] = PBMC + LPS(5 ug/ml) + test article 10 uM, Mean
[10] = PBMC + LPS(5 ug/ml) + test article 10 uM, single replicates
[11] = PBMC + LPS(5 ug/ml) + test article 100 uM, Mean
[12] = PBMC + LPS(5 ug/ml) + test article 100 uM, single replicates
[13] = PBMC + test article 0.01 uM, no LPS, Mean
[14] = PBMC + test article 0.01 uM, no LPS, single replicates
[15] = PBMC + test article 0.1 uM, no LPS, Mean
[16] = PBMC + test article 0.1 uM, no LPS, single replicates
[17] = PBMC + test article 1 uM, no LPS, Mean
[18] = PBMC + test article 1 uM, no LPS, single replicates
[19] = PBMC + test article 10 uM, no LPS, Mean
[20] = PBMC + test article 10 uM, no LPS, single replicates
[21] = PBMC + test article 100 uM, no LPS, Mean
[22] = PBMC + test article 100 uM, no LPS, single replicates

CC(C)C[C@H](NC(=O)CNC(=O)[C@H](CC(=O)O)NC(=O)[C@H](CCC(N)=O)NC(=O)CNC(=O)[C@@H]1C[C@@H](O)CN1)C(=O)N[C@@H](C)C(=O)NCC(=O)N1CCC[C@H]1C(=O)N[C@@H](CCCCN)C(=O)O [YY-101] (H-[Hyp]GQDGLAGPK-OH; N-terminus and C-terminus assumed)
MFI (IL-6; 10 uM, single replicates): 27.3 and 3.3
conc/live cell (IL-6; 10 uM, single replicates): 137.6 pg/10^5 and 0.0 pg/10^5
Concentration (IL-6; 100 uM, Mean): 524.7 pg/mL
MFI (IL-6; 100 uM, Mean): 15.8
conc/live cell (IL-6; 100 uM, Mean): 41.0 pg/10^5
Concentration (IL-6; 100 uM, single replicates): 524.7 pg/mL
MFI (IL-6; 100 uM, single replicates): 19.8 and 11.8
conc/live cell (IL-6; 100 uM, single replicates): 82.0 pg/10^5 and 0.0 pg/10^5
GM-CSF Concentration (GM-CSF; [1]): 159.8 pg/mL
GM-CSF conc/live cell (GM-CSF; [1]): 24.7 pg/10^5
GM-CSF Concentration (GM-CSF; [2]): 138.9 pg/mL and 160.4 pg/mL and 180.1 pg/mL
GM-CSF conc/live cell (GM-CSF; [2]): 24.4 pg/10^5 and 22.6 pg/10^5 and 27.3 pg/10^5
GM-CSF Concentration (GM-CSF; [3]): 159.0 pg/mL
GM-CSF conc/live cell (GM-CSF; [3]): 25.8 pg/10^5
GM-CSF Concentration (GM-CSF; [4]): 164.4 pg/mL and 159.6 pg/mL and 153.1 pg/mL
GM-CSF conc/live cell (GM-CSF; [4]): 25.7 pg/10^5 and 26.6 pg/10^5 and 25.1 pg/10^5
GM-CSF Concentration (GM-CSF; [5]): 139.7 pg/mL
GM-CSF conc/live cell (GM-CSF; [5]): 23.9 pg/10^5
GM-CSF Concentration (GM-CSF; [6]): 150.7 pg/mL and 135.6 pg/mL and 132.7 pg/mL
GM-CSF conc/live cell (GM-CSF; [6]): 24.3 pg/10^5 and 26.1 pg/10^5 and 21.4 pg/10^5
GM-CSF Concentration (GM-CSF; [7]): 141.2 pg/mL
GM-CSF conc/live cell (GM-CSF; [7]): 21.7 pg/10^5
GM-CSF Concentration (GM-CSF; [8]): 137.2 pg/mL and 133.1 pg/mL and 153.1 pg/mL
GM-CSF conc/live cell (GM-CSF; [8]): 21.8 pg/10^5 and 18.8 pg/10^5 and 24.7 pg/10^5
GM-CSF Concentration (GM-CSF; [9]): 148.1 pg/mL
GM-CSF conc/live cell (GM-CSF; [9]): 22.5 pg/10^5
GM-CSF Concentration (GM-CSF; [10]): 153.1 pg/mL and 143.8 pg/mL and 147.4 pg/mL
GM-CSF conc/live cell (GM-CSF; [10]): 25.5 pg/10^5 and 22.5 pg/10^5 and 19.4 pg/10^5
GM-CSF Concentration (GM-CSF; [11]): 224.0 pg/mL
GM-CSF conc/live cell (GM-CSF; [11]): 38.7 pg/10^5
GM-CSF Concentration (GM-CSF; [12]): 239.6 pg/ml and 216.3 pg/ml (2×)
GM-CSF conc/live cell (GM-CSF; [12]): 38.0 pg/10^5 and 34.9 pg/10^5 and 43.3 pg/10^5
GM-CSF Concentration (GM-CSF; [13]): 5.8 pg/mL
GM-CSF conc/live cell (GM-CSF; [13]): 1.2 pg/10^5
GM-CSF Concentration (GM-CSF; [14]): 5.3 pg/mL and 6.3 pg/mL
GM-CSF conc/live cell (GM-CSF; [14]): 1.0 pg/10^5 and 1.3 pg/10^5
GM-CSF Concentration (GM-CSF; [15]): 4.4 pg/mL
GM-CSF conc/live cell (GM-CSF; [15]): 0.8 pg/10^5
GM-CSF Concentration (GM-CSF; [16]): 1.9 pg/mL and 6.9 pg/mL
GM-CSF conc/live cell (GM-CSF; [16]): 0.4 pg/10^5 and 1.2 pg/10^5
GM-CSF Concentration (GM-CSF; [17]): 4.4 pg/mL
GM-CSF conc/live cell (GM-CSF; [17]): 0.8 pg/10^5
GM-CSF Concentration (GM-CSF; [18]): 4.7 pg/mL and 4.2 pg/mL
GM-CSF conc/live cell (GM-CSF; [18]): 0.9 pg/10^5 and 0.8 pg/10^5
GM-CSF Concentration (GM-CSF; [19]): 23.5 pg/mL
GM-CSF conc/live cell (GM-CSF; [19]): 3.7 pg/10^5
GM-CSF Concentration (GM-CSF; [20]): 33.5 pg/mL and 13.5 pg/mL
GM-CSF conc/live cell (GM-CSF; [20]): 5.2 pg/10^5 and 2.2 pg/10^5
GM-CSF Concentration (GM-CSF; [21]): 11.0 pg/mL
GM-CSF conc/live cell (GM-CSF; [21]): 1.7 pg/10^5
GM-CSF Concentration (GM-CSF; [22]): 14.5 pg/mL and 7.4 pg/mL
GM-CSF conc/live cell (GM-CSF; [22]): 2.3 pg/10^5 and 1.1 pg/10^5
LPS-induced GM-CSF levels (in words) (GM-CSF; at 100.iM, LPS 5 ug/mL 24 hrs): further increased
